The values below come from ChEMBL document CHEMBL1136279, “Synthesis and insulin-sensitizing activity of a novel kind of benzopyran derivative” (2003).

What is called EC30 is the concentration at which the effect reaches the 30% level.

The subject of assay [1] is 3T3-L1. Nature of the assay: Percentage of rosiglitazone response for insulin-sensitizing activity at 1 uM concentration in 3T3-L1 cells. Type of assay: functional, Mus musculus.
The test system of assay [2] is 3T3-L1. Nature of the assay: Effective concentration for enhancement of insulin-induced triglyceride accumulation in 3T3-L1 cells. Type of assay: functional. The following applies: Mus musculus.

For the compound `CCc1ccc(CCOc2ccc3cc(C(=O)O)c(=O)oc3c2)nc1`, the Insulin-sensitizing activity in the assay with 3T3-L1 [1] came to 15%.

In the case of `CCc1ccc(CCOc2ccc3cc(C(=O)OC)c(=O)oc3c2)nc1`, in the assay with 3T3-L1 [1], the Insulin-sensitizing activity came to 46%.

Take `COC(=O)C1Cc2ccc(OCCN(C)c3nc4ccccc4o3)cc2OC1=O` (stereo not drawn): the EC30 with 3T3-L1 [2] came to 219 nM. The Insulin-sensitizing activity in the assay with 3T3-L1 [1] is given as 108%.

With `COC(=O)c1cc2ccc(OCCN(C)C(=O)OC(C)(C)C)cc2oc1=O`, in the assay on 3T3-L1 [1], the Insulin-sensitizing activity is reported as 115%.

Regarding `COC(=O)C1Cc2cc(OCCc3nc(-c4ccccc4)oc3C)ccc2OC1=O` (stereo not drawn), the Insulin-sensitizing activity with 3T3-L1 [1] was determined as 28%.

As to `COC(=O)C1Cc2ccc(OCCc3nc(-c4ccccc4)oc3C)cc2OC1=O` (stereo not drawn), the concentration for an effect of 30% (EC30) with 3T3-L1 [2] is 15.6 nM. The Insulin-sensitizing activity in the assay on 3T3-L1 [1] is listed as 132%.

Take `COC(=O)c1cc2cc(OCCc3nc(-c4ccccc4)oc3C)ccc2oc1=O`: the Insulin-sensitizing activity in the assay with 3T3-L1 [1] worked out at 33%.

On to `COC(=O)c1cc2ccc(OCCc3nc(-c4ccccc4)oc3C)cc2oc1=O`, for which the concentration for an effect of 30% (EC30) with 3T3-L1 [2] was found to be 8 nM. Further, the Insulin-sensitizing activity with 3T3-L1 [1] is on record as 129%.

On to `COC(=O)c1cc2ccc(OCCn3ccc4ccccc43)cc2oc1=O`, for which the EC30 in the assay on 3T3-L1 [2] is 344 nM. In addition, the Insulin-sensitizing activity with 3T3-L1 [1] is on record as 108%.

Turning to `CCc1ccc(CCOc2ccc3c(c2)OC(=O)C(C(=O)OC)C3)nc1` (stereo not drawn), in the assay on 3T3-L1 [1], the Insulin-sensitizing activity was 27%.

Regarding `Cc1oc(-c2ccccc2)nc1CCOc1ccc2cc(C(=O)OC(C)(C)C)c(=O)oc2c1`, the EC30 with 3T3-L1 [2] is 382 nM. For the same compound, in the assay on 3T3-L1 [1], the Insulin-sensitizing activity is given as 89%.

With `Cc1oc(-c2ccccc2)nc1CCOc1ccc2c(c1)OC(=O)C(C(=O)O)C2` (stereo not drawn), the EC30 with 3T3-L1 [2] is 110 nM. The Insulin-sensitizing activity with 3T3-L1 [1] is on record as 98%.

Take `O=C(O)c1cc2ccc(OCCn3ccc4ccccc43)cc2oc1=O`: the Insulin-sensitizing activity with 3T3-L1 [1] is given as 25%.

In the case of `Cc1oc(-c2ccccc2)nc1CCOc1ccc2cc(C(=O)O)c(=O)oc2c1`, in the assay with 3T3-L1 [2], the 30% effect concentration (EC30) worked out at 300 nM. The Insulin-sensitizing activity in the assay with 3T3-L1 [1] amounted to 103%.

With `CN(CCOc1ccc(CC2SC(=O)NC2=O)cc1)c1ccccn1` (stereo not drawn) [ROSIGLITAZONE], in the assay on 3T3-L1 [2], the EC30 amounted to 20.3 nM. For the same compound, the Insulin-sensitizing activity in the assay on 3T3-L1 [1] turned out to be 100%.
